The source of these data is patent US20070032545A1, “Antibiotic fki-1778 and process for producing the same” (priority 2004, published 2007).

Test [1] deals with nauplius larva of Artemia salina. Briefly: Anti-arthropod activity on nauplius larva in 96-well microplate. It counts as in vivo. To be noted: observed microscopically after 2 days. As to the method:
Next, anti-arthropod activities of antibiotic FKI-1778 10 of the present invention are described hereinbelow. Methanol solution of each antibiotic FKI-1778 was placed in the microplate (96 wells) (Corning Corp., the U.S.). […] The buffer solution 50 μl containing several numbers of nauplius larva of Artemia salina, Arthropod, which was incubated in the buffer solution (Tris 20 mM, sodium chloride 440 mM, magnesium chloride 23 mM, sodium carbonate 1.9 mM, magnesium sulfate 53 mM and calcium chloride 10 mM), was added to each well, and the condition thereof was observed microscopically after 2 days.

Test [2] has as its system human leukemia cell strain Jurkat cell. In words: Cell cycle G1 phase terminating activity, DNA content by flow cytometer. It is filed as cell-based. To be noted: Jurkat cells, 5 μg added to 200 μl medium, 24 hours; for G2/M phase: No addition 22.3; for G1 phase: No addition 53.2. As to the method:
Further, a terminating activity of antibiotic FKI-1778 of the present invention against cell cycle G1 phase in cancer cells is explained as follows. Using 96-well microplate (Corning Corp., the U.S.), human leukemia cell strain Jurkat cell, 5×10^5 cells/well, was inoculated into RPMI 1640 medium (IWAKI Corp., Japan) 200 μl containing a mixture of 10% fetal bovine serum and 1% penicillin (10,000 units/ml)—streptomycin (10 mg/ml) (Invitrogen Inc., the U.S.) and cultured. Antibiotic FKI-1778, 5 μg, was added thereto, and the mixture was incubated at 37° C. for 24 hours under 5% CO2 atmosphere, and the culture supernatant was discarded. Cells were suspended in 0.1% aqueous sodium citrate solution (200 μl) containing 0.002% ribonuclease A (Sigma Corp., the U.S.), 0.005% propidium iodide (Sigma Corp., the U.S.) and 0.3 ml/100 ml IGEPAL-CA-630 (Sigma Corp., the U.S.). After the cell suspension was allowed to stand for 2 hours or more, DNA contents in 10,000 cells were measured by using flow cytometer (FACS Calibur, Becton, Dickinson and Company, the U.S.), then DNA contents of cells in G1 phase, S phase and G2/M phase were measured by using software, Cell Quest (Becton, Dickinson and Company, the U.S.).

The next test relates to various microorganisms. In words: Growth inhibitory activity against various microorganisms (summary of Table 2). It counts as cell-based. To be noted: result in words. An excerpt:
Next, diameters of inhibition ring of antibiotic FKI-1778A, antibiotic FKI-1778B, antibiotic FKI-1778C and antibiotic FKI-1778D against various microorganisms on the nutrient agar medium are shown in Table 2.

Each structure is given as a SMILES string. Some results are limits rather than exact numbers.

The compound `C=C1CCC2C(C)(CC/C=C(\C)C(=O)O)C(OC(C)=O)CCC2(C)C1Cc1c(O)c(C)c(C)oc1=O` (stereo not shown) [FKI-1778A] came in with an Anti-arthropod activity in test [1] above 200 µg/mL. Also, in test [2], the G2/M phase is listed as 12.8% and the G1 phase amounted to 62.4%. In addition, the “growth inhibitory activities against various microorganisms” value in the test with various microorganisms is “no growth inhibitory activities”.
Consider `C=C1CCC2C(C)(CC/C=C(\C)CO)C(OC(C)=O)CCC2(C)C1Cc1c(O)c(C)c(C)oc1=O` (stereo not shown) [FKI-1778B], for which the Anti-arthropod activity in test [1] worked out at 100 µg/mL. In test [2], this compound showed a G2/M phase of 12.0% and a G1 phase of 55.0%. The “growth inhibitory activities against various microorganisms” value in the test on various microorganisms was “no growth inhibitory activities”.
The corresponding values for `C=C(C)C(O)CCC1(C)C(OC(C)=O)CCC2(C)C(Cc3c(O)c(C)c(C)oc3=O)C(=C)CCC12` (stereo not shown) [FKI-1778C] are above 200 µg/mL, 13.0%, 64.2% and “no growth inhibitory activities”.
For `C=C1CCC2C(C)(CC/C=C(/C)CO)C(OC(C)=O)CCC2(C)C1Cc1c(O)c(C)c(C)oc1=O` (stereo not shown) [FKI-1778D], in that order: 100 µg/mL, 9.9%, 63.9% and “no growth inhibitory activities”.
